Results on two compounds are retold here after patent US20200032350A1, “COMPANION DIAGNOSTICS FOR LEUKEMIA TREATMENT” (JOHANN WOLFGANG GOETHE-UNIVERSITÄT FRANKFURT AM MAIN, priority 2017, published 2020).

The test system of series [1] is H cells. Briefly: colony formation and replating assay. It counts as cell-based, mouse. An excerpt: (§1) To elucidate the molecular mechanisms underlying Meis1's contribution to leukemogenesis, a retroviral transplantation model was employed in which lineage-depleted mouse bone marrow cells were transduced with an MSCV-Hoxa9-PGK-neo construct, alone or in combination with an MSCV-Meis1-IRES-YFP construct that induced a 22-fold overexpression of Meis1. As reported by previously, the transformed cells could be cultured in vitro in the presence of IL3/IL6/SCF and expressed the expected immunophenotype characterized by the myeloid markers Mac-1 and Gr-1 as well as c-Kit (Pineault et al., 2005; Wang et al., 2005). When transplanted into irradiated recipient mice, cells transduced with Hoxa9 (H) or Hoxa9/Meis1 (H/M) gave rise to leukemia resulting in a median overall survival of 114 days and 41 days, respectively (p<0.001; FIG. 1A). This difference in survival is in accordance with previously published results and reflects the aggressiveness of Hoxa9/Meis1-driven AML observed in patients (Kroon et al., 1998).
(§2) The inventors next sought to characterize the functional consequences of Syk overexpression in the context of Hoxa9-driven leukemias. For this purpose, the consequences of a lentiviral overexpression of human SYK (hSYK) in H cells in vitro and in vivo were examined. […] While Hoxa9 alone is sufficient to enable replating, both Meis1 and hSYK enhanced replating efficiency.

The subject of a further series is H/S cells. Description: colony formation and replating assay. Format: cell-based, mouse.
Description: as §2

Series [2] deals with CD34+ progenitor cells isolated from healthy donors. Briefly: relative viability of CD34+ bone marrow cells from healthy donors. Format: cell-based, human.
Description: Cells were treated for 24 h and DMSO was used as a control. (J) Relative viability of CD34+ bone marrow cells from healthy donors.
Series [3] has as its system H/M cells. Description: colony formation and replating assay. Format: cell-based, mouse.
Description: as §1
The inventors next sought to characterize the functional consequences of Syk overexpression in the context of Hoxa9-driven leukemias. […]
To test whether the enhanced Syk signaling observed in H/M cells could be exploited therapeutically, the effects of Syk inhibitors and of an shRNA-mediated knockdown of Syk in H/M cells, in vitro and in vivo were analyzed.

Series [4] has as its system H/M cells. Briefly: time-lapse microscopy and single-cell tracking. Format: cell-based, mouse. The note with it: compared with DMSO-treated cells, tracked over more than 50 hours. As to the method: (§3) The effect of Syk inhibition in H and H/M cells was further examined by monitoring the fate of individual cells and their progeny by time-lapse microscopy and single-cell tracking (Rieger et al., 2009). This allowed to track hundreds of H and H/M cells over more than 50 hours in real time and to record their history across cell generations. […] In addition, the inventors knocked down Syk in vivo by transplanting mice with cells that were either transduced with the doxycycline-inducible lentiviral Syk shRNAs or with control shRNAs and treating them with doxycycline for 43 days. Knockdown of Syk prolonged the survival of mice transplanted with H/M cells from a median time of 40.5 days in controls to a median of 103 days (p<0.001) (FIGS. 7C and 7D). Furthermore, mice transplanted with H/M or H cells were treated with the oral Syk inhibitor R788, a prodrug of R406.

The subject of series [5] is H cells. Description: time-lapse microscopy and single-cell tracking. It counts as cell-based, mouse. As to conditions: compared with DMSO-treated cells, tracked over more than 50 hours. On the procedure:
as §3

Series [6] relates to H cells. Description: treatment of mice transplanted with H cells. It counts as in vivo. From the text:
(§4) FIG. 7. Meis1 sensitizes Hoxa9-driven leukemia to Syk inhibition. (A) SYK protein expression in H/M cells transfected with either a control shRNA (GL2) or two shRNAs targeting SYK. Actin was used as loading control for relative protein quantification. (B) Percentage of BFP-positive shRNA-expressing cells relative to BFP-negative shRNA-negative cells at the times indicated (mean±SD, normalized to day 0). (C) Same as (A), before and after five days of doxycycline (dox) treatment in vivo. (D) Kaplan-Meier survival curves of mice transplanted with H/M cells and treated with doxycycline for 43 days to express non-specific control and Syk-specific shRNA (n=8). p-value is from a Mantel-Cox test. (E) Percentage of YFP-positive cells from peripheral blood of mice transplanted with H (left) or H/M (right) cells after treating for 7 days with R788 or placebo. Measurements were taken at the indicated time points. The black line connects median values. (F) Kaplan-Meier survival curves of mice transplanted with either H or H/M cells and treated for 20 days with R788 or placebo (n=11). p-value is from a Mantel-Cox test. (G) Relative HOXA9 and MEIS1 mRNA expression in MV4-11 and KG1 cell lines, and in patient-derived AML cells as measured by qPCR, normalized to GAPDH expression (mean±SD, n=3). […] Actin was used as loading control for relative protein quantification. avg, average. […]

Series [7] deals with H/M cells. Description: treatment of mice transplanted with H/M cells. Format: in vivo.
Description: as §4

`COc1cc(Nc2ncc(F)c(Nc3ccc4c(n3)NC(=O)C(C)(C)O4)n2)cc(OC)c1OC` [R406]: the “colony formation and replating efficiency” value in the series with H cells [1] was “moderately affecting”. Further, the replating efficiency entry in the series with H/S cells and with H/M cells [3] was “decreased replating efficiency” each time. In addition, in series [2], the viability result is “did not affect the viability”. Moreover, the “colony formation potential and replating efficiency” value with H/M cells [3] is on record as “significantly reduced”. In addition, the cell death entry with H/M cells [4] is “significant increase in cell death”; in the series with H cells [5], “not significantly affected”.
For the compound `COc1cc(Nc2ncc(F)c(Nc3ccc4c(n3)N(COP(=O)(O)O)C(=O)C(C)(C)O4)n2)cc(OC)c1OC` [R788, fostamatinib], the “level of H cells (percentage of leukemic cells)” value with H cells [6] (seven days of treatment, oral) is given as “barely affecting”. Besides, the survival entry in the series on H cells [6] (treatment for 20 days) is given as “No significant effect”. For the same compound, in the series on H/M cells [7] (seven days of treatment, oral, peripheral blood YFP-positive cells, on average), the “reduction of the percentage of leukemic cells” value is “more than 70%”. Besides, in the series with H/M cells [7] (treatment for 20 days, placebo median 38 days, p<0.001), the median survival turned out to be 130 days.
